From ChEMBL document CHEMBL1157106, “cis-Clerodane-type furanoditerpenoids from Tinospora crispa” (J Nat Prod, 2010)

How the values were obtained:
[1] = test system: NIH3T3; assay: Cytotoxicity against mouse 3T3 cells after 72 hrs by MTT assay; format: cell-based; settings: NIH3T3, 72 h
[2] = test system: PC-3; assay: cells; settings: Homo sapiens, PC-3, 72 h
Description: Cytotoxicity against human PC3 cells after 72 hrs by MTT assay

Compound | IC50 [1] [µM] | IC50 [2] [µM]
COC(=O)C1=CCC[C@H]2[C@]3(C)C[C@@H](c4ccoc4)OC(=O)[C@@H]3C[C@@H](O[C@@H]3O[C@H](CO)[C@@H](O)[C@H](O)[C@H]3O)[C@@]12C [BORAPETOSIDE C] | > 10 | > 10
COC(=O)C1=C[C@H](O)C[C@H]2[C@]3(C)C[C@@H](c4ccoc4)OC(=O)[C@H]3C[C@H](O[C@@H]3O[C@H](CO)[C@@H](O)[C@H](O)[C@H]3O)[C@@]12C [BORAPETOSIDE B] | > 10 | > 10
C[C@@H]1C[C@@H]([C@H](O)CC2CC(=O)NC(=O)C2)C(=O)[C@@H](C)C1 [CYCLOHEXIMIDE] | 0.26 | 
C[C@@]12C[C@@H](c3ccoc3)OC(=O)[C@@H]1C[C@@H]1OC(=O)[C@@]3(O)[C@@H](O[C@@H]4O[C@H](CO)[C@@H](O)[C@H](O)[C@H]4O)CC[C@@H]2[C@@]13C [BORAPETOSIDE A] | > 10 | > 10
COC(=O)C1=CCC[C@H]2[C@](C)(C[C@@H](O[C@@H]3O[C@H](CO[C@@H]4O[C@H](CO)[C@@H](O)[C@H](O)[C@H]4O)[C@@H](O)[C@H](O)[C@H]3O)c3ccoc3)[C@H]3C[C@H](OC3=O)[C@@]12C [BORAPETOSIDE D] | > 10 | > 10
COc1cccc2c1C(=O)c1c(O)c3c(c(O)c1C2=O)C[C@@](O)(C(=O)CO)C[C@@H]3O[C@H]1C[C@H](N)[C@H](O)[C@H](C)O1 [DOXORUBICIN] |  | 0.912
